The assay relates to L1210 leukemia ip in BDF1 mice, survival T/C. The assay can be described thus: NCI In Vivo Anticancer Drug Screen. Data for tumor model L1210 Leukemia (intraperitoneal) in B6D2F1 (BDF1) mice. As to conditions: endpoint: mean survival time, higher = longer survival. In short, it runs like this:
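Transplanted-tumor mice were given test agent; controls received vehicle only. Survival readings from the two groups were divided (treated over control).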

The mark [1] stands for this setting: dose: 100.0 mg/kg/injection, schedule: Q01DX009 (ip), vehicle: Klucel (hydroxypropylcellulose) (HPC).
Setting [2] is: dose: 200.0 mg/kg/injection, schedule: Q01DX009 (ip), vehicle: Klucel (hydroxypropylcellulose) (HPC).
The mark [3] stands for this setting: dose: 400.0 mg/kg/injection, schedule: Q01DX009 (ip), vehicle: Klucel (hydroxypropylcellulose) (HPC).
[4] abbreviates: dose: 100.0 mg/kg/injection, schedule: Q01DX009 (ip), vehicle: saline with Tween-80.
Where [5] appears, read: dose: 200.0 mg/kg/injection, schedule: Q01DX009 (ip), vehicle: saline with Tween-80.
Where [6] appears, read: dose: 100.0 mg/kg/injection, schedule: Q04DX003 (ip), vehicle: saline with Tween-80.
Setting [7] is: dose: 200.0 mg/kg/injection, schedule: Q04DX003 (ip), vehicle: saline with Tween-80.
Setting [8] is: dose: 400.0 mg/kg/injection, schedule: Q01DX009 (ip), vehicle: saline with Tween-80.
Setting [9] is: dose: 400.0 mg/kg/injection, schedule: Q04DX003 (ip), vehicle: saline with Tween-80.

Toxic doses and inconclusive results are not listed.

As for `Fc1ccccc1N=C=S`, the T/C runs as follows: (dose: 75.0 mg/kg/injection, schedule: Q01DX001 (ip), vehicle: other) 104 % of control; (dose: 150.0 mg/kg/injection, schedule: Q01DX001 (ip), vehicle: other) 93 % of control.

On to `COc1ccccc1CN1CCCN(Cc2ccccc2OC)C1c1ccc(C2N(Cc3ccccc3OC)CCCN2Cc2ccccc2OC)cc1`, for which the T/C by setting is: (dose: 100.0 mg/kg/injection, schedule: Q01DX001 (ip), vehicle: acetone) 102 % of control; (dose: 200.0 mg/kg/injection, schedule: Q01DX001 (ip), vehicle: acetone) 96 % of control; (dose: 400.0 mg/kg/injection, schedule: Q01DX001 (ip), vehicle: acetone) 96 % of control.

In the case of `O=C1/C(=C/c2ccccc2[N+](=O)[O-])Cc2ccccc21`, the T/C was 107 % of control (dose: 50.0 mg/kg/injection, schedule: Q01DX009 (ip), vehicle: Klucel (hydroxypropylcellulose) (HPC)); 94 % of control under setting [1]; 93 % of control under setting [2].

As for `CSc1ncc(Br)c(Sc2nc(N)nc3nc[nH]c23)n1`, the T/C (dose: 0.25 mg/kg/injection, schedule: Q01DX Z (ip), vehicle: other) is 107 % of control; the T/C (dose: 0.5 mg/kg/injection, schedule: Q01DX Z (ip), vehicle: other) was 103 % of control; the T/C (dose: 1.0 mg/kg/injection, schedule: Q01DX Z (ip), vehicle: methylcellulose (MC)) was 98 % of control; the T/C (dose: 1.0 mg/kg/injection, schedule: Q01DX Z (ip), vehicle: other) was 103 % of control; the T/C (dose: 3.0 mg/kg/injection, schedule: Q01DX Z (ip), vehicle: carboxymethylcellulose (CMC)) is 121 % of control; the T/C (dose: 3.0 mg/kg/injection, schedule: Q01DX Z (ip), vehicle: methylcellulose (MC)) is 97 % of control. The T/C (dose: 6.0 mg/kg/injection, schedule: Q01DX Z (ip), vehicle: methylcellulose (MC)) is 107 % of control; the T/C (dose: 10.0 mg/kg/injection, schedule: Q01DX001 (ip), vehicle: saline with Tween-80) is 156 % of control; the T/C (dose: 12.0 mg/kg/injection, schedule: Q01DX001 (ip), vehicle: saline with Tween-80) is 190 % of control; the T/C (dose: 12.0 mg/kg/injection, schedule: Q01DX Z (ip), vehicle: carboxymethylcellulose (CMC)) was 158 % of control; the T/C (dose: 14.0 mg/kg/injection, schedule: Q01DX001 (ip), vehicle: saline with Tween-80) was 200 % of control; the T/C (dose: 19.0 mg/kg/injection, schedule: Q01DX001 (ip), vehicle: saline with Tween-80) is 162 % of control. Also, the T/C was 244 % of control (dose: 29.0 mg/kg/injection, schedule: Q01DX001 (ip), vehicle: saline); 162 % of control (dose: 30.0 mg/kg/injection, schedule: Q01DX001 (ip), vehicle: saline with Tween-80); 96 % of control (dose: 32.0 mg/kg/injection, schedule: Q01DX Z (ip), vehicle: other); 107 % of control (dose: 33.5 mg/kg/injection, schedule: Q01DX Z (ip), vehicle: carboxymethylcellulose (CMC)); 164 % of control (dose: 44.0 mg/kg/injection, schedule: Q01DX001 (ip), vehicle: saline with Tween-80); 236 % of control (dose: 45.0 mg/kg/injection, schedule: Q01DX001 (ip), vehicle: saline). In addition, the T/C is, setting by setting: (dose: 48.0 mg/kg/injection, schedule: Q01DX Z (ip), vehicle: carboxymethylcellulose (CMC)) 103 % of control; (dose: 50.0 mg/kg/injection, schedule: Q01DX001 (ip), vehicle: carboxymethylcellulose (CMC)) 158 % of control; (dose: 66.0 mg/kg/injection, schedule: Q01DX001 (ip), vehicle: saline) 101 % of control; (dose: 100.0 mg/kg/injection, schedule: Q01DX001 (ip), vehicle: saline with Tween-80) 104 % of control; (dose: 100.0 mg/kg/injection, schedule: Q01DX Z (ip), vehicle: methylcellulose (MC)) 91 % of control; (dose: 150.0 mg/kg/injection, schedule: Q01DX001 (ip), vehicle: saline with Tween-80) 120 % of control. Further, the T/C is 105 % of control (dose: 150.0 mg/kg/injection, schedule: Q01DX001 (ip), vehicle: saline); 103 % of control (dose: 200.0 mg/kg/injection, schedule: Q01DX001 (ip), vehicle: carboxymethylcellulose (CMC)); 122 % of control (dose: 200.0 mg/kg/injection, schedule: Q01DX001 (ip), vehicle: saline); 94 % of control (dose: 400.0 mg/kg/injection, schedule: Q01DX001 (ip), vehicle: carboxymethylcellulose (CMC)); 99 % of control (dose: 400.0 mg/kg/injection, schedule: Q01DX001 (ip), vehicle: saline).

In the case of `CCCCNC(=O)C(=O)c1ccccc1NC(C)=O`, the T/C was 86 % of control under setting [1], 87 % of control under setting [2] and 97 % of control under setting [3].

For the molecule `CS(=O)(=O)OCCCN(CCCOS(C)(=O)=O)c1ccc(C=Nc2ccc(-c3csc(COc4ccc(Br)cc4)n3)cc2)cc1`, the T/C under setting [4] is 95 % of control and the T/C under setting [5] was 95 % of control.

Regarding `Nc1c(C(=O)O)cccc1C(=O)O`, the T/C by setting is: under setting [4], 98 % of control; under setting [6], 110 % of control; under setting [5], 107 % of control; under setting [7], 108 % of control; under setting [8], 107 % of control; under setting [9], 96 % of control.

Turning to `C/C=C(/C#N)c1ccccc1`, the T/C reads like this: (dose: 50.0 mg/kg/injection, schedule: Q01DX009 (ip), vehicle: saline with Tween-80) 107 % of control; under setting [4], 106 % of control; under setting [6], 90 % of control; under setting [5], 100 % of control; under setting [7], 96 % of control.

Regarding `CCOC(=O)c1ccc(NC(=O)Oc2cc(C)c(Cl)c(C)c2)cc1`, the T/C was 95 % of control under setting [1], 90 % of control under setting [2] and 96 % of control under setting [3].

In the case of `COC(=O)C(C)NC(=O)Cc1ccccc1` (stereo not drawn), the T/C under setting [4] was 94 % of control; the T/C under setting [6] was 98 % of control; the T/C under setting [5] was 92 % of control; the T/C under setting [7] was 101 % of control; the T/C under setting [8] is 92 % of control; the T/C under setting [9] was 97 % of control.

For the molecule `Brc1ccc([Si](c2ccccc2)(c2ccccc2)c2ccccc2)cc1`, the T/C reads like this: under setting [6], 97 % of control; under setting [7], 92 % of control; under setting [9], 89 % of control.

Consider `CCOC(=O)C[P+](c1ccc(OC)cc1)(c1ccc(OC)cc1)c1ccc(OC)cc1`, for which the T/C (dose: 30.0 mg/kg/injection, schedule: Q01DX001 (ip), vehicle: carboxymethylcellulose (CMC)) was 90 % of control.

As for `CC(=O)Nc1cc2c(cc1Br)-c1ccc(F)cc1C2`, the T/C is, setting by setting: (dose: 200.0 mg/kg/injection, schedule: Q01DX Z (ip), vehicle: saline) 98 % of control; (dose: 400.0 mg/kg/injection, schedule: Q01DX Z (ip), vehicle: saline) 102 % of control; (dose: 800.0 mg/kg/injection, schedule: Q01DX Z (ip), vehicle: saline) 110 % of control.

For `CN(C(=O)/C=C/c1ccc([N+](=O)[O-])cc1)c1ccc(S(=O)(=O)F)cc1`, the T/C was 91 % of control under setting [1], 94 % of control under setting [2] and 97 % of control under setting [3].

As for `CC(=O)NC(Cc1ccccc1)C(=O)O` (stereo not drawn), the T/C is, setting by setting: (dose: 50.0 mg/kg/injection, schedule: Q04DX003 (ip), vehicle: Klucel (hydroxypropylcellulose) (HPC)) 94 % of control; (dose: 100.0 mg/kg/injection, schedule: Q04DX003 (ip), vehicle: Klucel (hydroxypropylcellulose) (HPC)) 103 % of control; (dose: 200.0 mg/kg/injection, schedule: Q04DX003 (ip), vehicle: Klucel (hydroxypropylcellulose) (HPC)) 100 % of control.

For the molecule `CC(C)CCCC(C)C1CCC2C3C(=O)C=C4CC(O)CCC4(C)C3CCC12C` (stereo not drawn), the T/C runs as follows: (dose: 100.0 mg/kg/injection, schedule: Q01DX009 (sc), vehicle: steriod suspending solution) 106 % of control; (dose: 100.0 mg/kg/injection, schedule: Q04DX003 (sc), vehicle: steriod suspending solution) 100 % of control; (dose: 200.0 mg/kg/injection, schedule: Q01DX009 (sc), vehicle: steriod suspending solution) 96 % of control; (dose: 200.0 mg/kg/injection, schedule: Q04DX003 (sc), vehicle: steriod suspending solution) 115 % of control; (dose: 400.0 mg/kg/injection, schedule: Q01DX009 (sc), vehicle: steriod suspending solution) 98 % of control; (dose: 400.0 mg/kg/injection, schedule: Q04DX003 (sc), vehicle: steriod suspending solution) 107 % of control.

Consider `O=C(OCCN1CCCCC1)C(c1ccccc1)C1(O)CCCC1` (stereo not drawn), for which the T/C is 106 % of control (dose: 50.0 mg/kg/injection, schedule: Q01DX009 (ip), vehicle: saline) and 116 % of control (dose: 100.0 mg/kg/injection, schedule: Q01DX009 (ip), vehicle: saline).

For the origin of these results see PubChem BioAssay AID248 (DTP/NCI, 2004).
